Experimental data from US20120309796A1, “BENZOCYCLOHEPTENE ACETIC ACIDS” (priority 2011, published 2012).

Biological target: T1, human CRTH2 (Homo sapiens, UniProt Q9Y5Y4)
T1 sequence (Q9Y5Y4 1-395): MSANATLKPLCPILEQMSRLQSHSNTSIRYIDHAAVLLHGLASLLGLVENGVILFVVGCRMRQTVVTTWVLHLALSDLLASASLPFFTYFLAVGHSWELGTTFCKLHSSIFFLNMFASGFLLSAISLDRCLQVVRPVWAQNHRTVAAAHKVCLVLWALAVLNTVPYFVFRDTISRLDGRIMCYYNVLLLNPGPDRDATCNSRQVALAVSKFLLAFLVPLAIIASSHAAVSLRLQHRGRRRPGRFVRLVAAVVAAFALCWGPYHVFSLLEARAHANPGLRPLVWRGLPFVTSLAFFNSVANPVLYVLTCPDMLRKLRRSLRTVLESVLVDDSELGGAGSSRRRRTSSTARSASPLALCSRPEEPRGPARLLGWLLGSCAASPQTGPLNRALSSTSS
Assay: Calcium Flux Assay Using Fluorometric Imaging Plate Reader (FLIPR)
Type: cell-based
Set-up: expressed in transfected cells; host or cells: CHO-K1 previously transfected with G-alpha 16
Details: CHO-K1 cells with G-alpha 16 and human CRTH2; inhibition of DK-PGD2 ligand-induced Ca2+ flux
Experimental: CHO-K1 cells previously transfected with G-alpha 16 were subsequently transfected with the human CRTH2 receptor and the neomycin resistance gene. Following selection in 800 μg/mL G418 (geneticin), individual clones were assayed for their receptor expression based on staining with an anti human CRTH2 IgG, followed by assaying for their response to 13,14-dihydro-15-keto Prostaglandin D2 (DK-PDG2) (ligand) in the Ca^2+ Flux assay. Positive clones were then cloned by limiting dilution cloning. The transfected cells were cultured in Ham's F-12 medium supplemented with 10% fetal bovine serum, 2 mM glutamine, 100 U/mL penicillin/100 μg/mL streptomycin, 200 μg/mL hygromycin B, and 800 μg/mL G418 (geneticin). Cells were harvested with trypsin-EDTA (trypsin-ethylenediaminetetraacetic acid) and counted using ViaCount® reagent (from Guava Technologies, Inc. which contains two DNA-binding dyes that enable the reagent user to distinguish between viable and non-viable cells). The cell suspension volume was adjusted to 2.5×10^5 cells/mL with complete growth media. Aliquots of 50 μL were dispensed into BD Falcon™ 384 well black/clear microplates (from BD Biosciences, a division of Becton, Dickinson and Company) and the microplates were placed in a 37° C. CO2 incubator overnight. The following day, the microplates were used in the assay.
Loading Buffer containing dye (from the FLIPR® Calcium 3 Assay Kit from Molecular Devices, a division of MDS Analytical Technologies and MDS Inc.) was prepared by dissolving the contents of one bottle into 200 mL Hank's Balanced Salt Solution containing 20 mM HEPES (4-(2-hydroxyethyl)-1-piperazineethanesulfonic acid) and 2.5 mM probenecid. Growth media was removed from the cell plates and 25 μL of Hank's Balanced Salt Solution (HBSS) containing 20 mM HEPES, 0.05% BSA and 2.5 mM probenecid was added to each well followed by 25 μL of diluted dye using a Multidrop dispenser. The plates were then incubated for 1 hour at 37° C.
During the incubation, test compound plates were prepared by adding 90 μL of HBSS/20 mM HEPES/0.005% BSA buffer to the 2 μL of serial diluted compounds. To prepare serial diluted compounds, 20 mM stocks of compounds were dissolved in 100% DMSO. The compound dilution plate was set up as follows: well #1 received 5 μL of compound plus 10 μL of DMSO. Wells 2-10 received 10 μL of DMSO. 5 μL was mixed and transferred from well #1 into well #2. 1:3 serial dilutions were continued out 10 steps. 2 μl of diluted compound was transferred into duplicate wells of a 384 well “assay plate” and then 90 μL of buffer was added.
After incubation, both the cell and “assay plate” plates were brought to the fluorometric imaging plate reader (FLIPR®) and 20 μL of the diluted compounds were transferred to the cell plates by the FLIPR®. Plates were then incubated for 1 hour at room temperature. After the 1 hour incubation, plates were returned to the FLIPR® and 20 μL of 4.5× concentrated ligand was added to the cell plates. During the assay, fluorescence readings were taken simultaneously from all 384 wells of the cell plate every 1.5 seconds. Five readings were taken to establish a stable baseline, then 20 μL of sample was rapidly (30 μL/sec) and simultaneously added to each well of the cell plate. The fluorescence was continuously monitored before, during and after sample addition for a total elapsed time of 100 seconds. Responses (increase in peak fluorescence) in each well following agonist addition were determined. The initial fluorescence reading from each well, prior to ligand stimulation, was used as a zero baseline value for the data from that well. The responses were expressed as % inhibition of the buffer control. […]

Compound | IC50 [nM]
O=C(O)COc1cccc2c1CCCCC2NS(=O)(=O)c1cc(C(F)(F)F)cc(C(F)(F)F)c1 (single isomer, unassigned) [Example 46, [5-(3,5-Bis-trifluoromethyl-benzenesulfonylamino)-6,7,8,9-tetrahydro-5H-benzocyclohepten-1-yloxy]-acetic acid] | 188
O=C(O)COc1cccc2c1CCCCC2NS(=O)(=O)c1cc(C(F)(F)F)cc(C(F)(F)F)c1 (centres unmarked) [Example 1, [5-(3,5-Bis-trifluoromethyl-benzenesulfonylamino)-6,7,8,9-tetrahydro-5H-benzocyclohepten-1-yloxy]-acetic acid] | 114
